Data from patent publication US8304447B2, “2-acylaminopropoanol-type glucosylceramide synthase inhibitors” (Genzyme Corporation, priority 2007, dated 2012).
Like-named read-outs stand apart in the source and are kept apart here.

Tested on: GM3
Test: GM3 Elisa assay
Type: cell-based
Settings: B16-FO cells, 2 days incubation, read-out: IC50_uM_Mean
Description: B16-FO cells from ATCC (American Tissue Culture Collection) were grown in DMEM media (ATCC) with 10% Fetal Bovine Serum (Hyclone) and Pen/Step/Glutamine (Biowhittaker). 4000 cells per well were plated on collagen coated plates (BD) and allowed to attach for 6 hours in an incubator (37 degrees, 5% CO2). After 6 hours the compounds and controls were added to the wells, the plates mixed and returned to the incubator for 2 days. Day of assay the cells were fixed for 20 minutes with 1% formaldehyde and then washed with Tris Buffered Saline (TBS) 3 times, 150 μl of TBS was left in the wells and 50 μl of goat serum (Invitrogen) was added, the plates mixed and incubated for 1 hour at room temperature. The plates were flicked and the cells incubated with the monoclonal Antibody to GM3 (NeuAc) (Cosmo) for 45 minutes as room temperature. The plates were then washed 3 times with TBS, leaving 150 μl of TBS in the wells and Peroxidase AffinPure F (ab′) 2 frag Gt Anti-mouse IgM, μ Chain Specific (Jackson Immuno Research) was added in 50 μl, the plates mixed and incubated for 45 minutes at room temperature. The plates were washed 3 times with TBS, flicked and blotted and 100 μl of Quantablu (Pierce) was added to the wells and incubated for 1 hour then read on a Fluorometer at Ex 325 and Em 420. The data was then analyzed using standard programs.

SMILES	IC50 (48 h, Table 1)	IC50 (48 h, Table 2)	further results
CC(C)(C)c1ccc(C(=O)CCCCC(=O)N[C@H](CN2CCCC2)[C@H](O)c2ccc3c(c2)OCCO3)cc1 [Compound 155, 6-(4-tert-butylphenyl)-N-((1R,2R)-1-(2,3-dihydrobenzo[β][1,4]dioxin-6-yl)-1-hydroxy-3-(pyrrolidin-1-yl)propan-2-yl)-6-oxohexanamide]	100 to 1000 nM	–	–
COc1ccc(C(=O)CCCCCC(=O)N[C@H](CN2CCCC2)[C@H](O)c2ccc3c(c2)OCCO3)cc1 [Compound 156, N-((1R,2R)-1-(2,3-dihydrobenzo[β][1,4]dioxin-6-yl)-1-hydroxy-3-(pyrrolidin-1-yl)propan-2-yl)-7-(4-methoxyphenyl)-7-oxoheptanamide]	≤ 100 nM	–	–
O=C(CCCCCC(=O)c1ccc(Cl)cc1)N[C@H](CN1CCCC1)[C@H](O)c1ccc2c(c1)OCCO2 [Compound 159, 7-(4-chlorophenyl)-N-((1R,2R)-1-(2,3-dihydrobenzo[β][1,4]dioxin-6-yl)-1-hydroxy-3-(pyrrolidin-1-yl)propan-2-yl)-7-oxoheptanamide]	≤ 100 nM	–	–
CC(C)(C)c1ccc(C(=O)CCCCCC(=O)N[C@H](CN2CCCC2)[C@@H](O)c2ccc3c(c2)OCCO3)cc1 [Compound 160, 7-(4-tert-butylphenyl)-N-((1R,2R)-1-(2,3-dihydrobenzo[β][1,4]dioxin-6-yl)-1-hydroxy-3-(pyrrolidin-1-yl)propan-2-yl)-7-oxoheptanamide]	100 to 1000 nM	–	–
O=C(CCC(=O)c1ccc(C(F)(F)F)cc1)N[C@H](CN1CCCC1)[C@H](O)c1ccc2c(c1)OCCO2 [Compound 176, N-((1R,2R)-1-(2,3-dihydrobenzo[β][1,4]dioxin-6-yl)-1-hydroxy-3-(pyrrolidin-1-yl)propan-2-yl)-4-oxo-4-(4-(trifluoromethyl)phenyl)butanamide (2S,3S)-2,3-dihydroxysuccinate]	–	–	IC50 (Table 1): ≤ 100 nM
CC(C)Oc1ccc(C(=O)CCCCC(=O)N[C@H](CN2CCCC2)[C@H](O)c2ccc3c(c2)OCCO3)cc1 [Compound 181, N-((1R,2R)-1-(2,3-dihydrobenzo[b][1,4]dioxin-6-yl)-1-hydroxy-3-(pyrrolidin-1-yl)propan-2-yl)-6-(4-isopropoxyphenyl)-6-oxohexanamide]	≤ 100 nM	–	–
O=C(N[C@H](CN1CCCC1)[C@H](OC(=O)c1ccc(-c2ccccn2)s1)c1ccc2c(c1)OCCO2)c1ccc(-c2ccccn2)s1 [Compound 242]	–	3000 to 10000 nM	–
CC(=O)O[C@H](c1ccc2c(c1)OCCO2)[C@@H](CN1CCCC1)NC(=O)NCc1ccccc1 [Compound 243]	–	≤ 100 nM	–
O=C(NCc1ccc(Cl)cc1)N[C@H](CN1CCCC1CN1CCCC1)[C@H](O)c1ccc2c(c1)OCCO2 (stereo partly shown) [Compound 244]	–	≤ 100 nM	–
COc1ccc(CCC(=O)N[C@H](CN2CCCC2CN2CCCC2)[C@H](O)c2ccc3c(c2)OCCO3)cc1Cl (stereo partly shown) [Compound 245]	–	3000 to 10000 nM	–
COc1ccc([C@@H](O)[C@@H](CN2CCCC2)NC(=O)OCc2ccccc2)cc1 [Compound 246]	–	–	IC50 (Table 2): 1000 to 3000 nM
COc1ccc([C@@H](O)[C@@H](CN2CCCC2)NC(=O)CCOc2ccc(C)cc2)cc1 [Compound 247, N-((1R,2R)-1-hydroxy-1-(4-methoxyphenyl)-3-(pyrrolidin-1-yl)propan-2-yl)-3-(p-tolyloxy)propanamide]	–	≤ 100 nM	–
COc1ccc([C@@H](OC(=O)CCOc2ccc(C)cc2)[C@@H](CN2CCCC2)NC(=O)CCOc2ccc(C)cc2)cc1 [Compound 248]	–	100 to 1000 nM	–
COc1ccc([C@@H](O)[C@@H](CN2CCCC2)NC(=O)Nc2ccc(OC(F)(F)F)cc2)cc1 [Compound 249]	–	1000 to 3000 nM	–
COc1ccc([C@@H](OC(=O)Cc2ccc(C(F)(F)F)cc2)[C@@H](CN2CCCC2)NC(=O)Cc2ccc(C(F)(F)F)cc2)cc1 [Compound 250]	–	100 to 1000 nM	–
COc1ccc([C@@H](O)[C@@H](CN2CCCC2)NC(=O)Cc2ccc(C(F)(F)F)cc2)cc1 [Compound 251, N-((1R,2R)-1-hydroxy-1-(4-methoxyphenyl)-3-(pyrrolidin-1-yl)propan-2-yl)-2-(4-(trifluoromethyl)phenyl)acetamide]	–	100 to 1000 nM	–
Cc1ccc(OCCC(=O)N[C@H](CN2CCCC2)[C@H](OC(=O)CCOc2ccc(C)cc2)c2ccc3c(c2)OCCO3)cc1 [Compound 252]	–	100 to 1000 nM	–
O=C(CCCc1nc(-c2ccc(Cl)cc2)no1)N[C@H](CN1CCCC1)[C@H](OC(=O)CCCc1nc(-c2ccc(Cl)cc2)no1)c1ccc2c(c1)OCCO2 [Compound 253]	–	100 to 1000 nM	–
O=C(CCCc1nc(-c2cccs2)no1)N[C@H](CN1CCCC1)[C@H](OC(=O)CCCc1nc(-c2cccs2)no1)c1ccc2c(c1)OCCO2 [Compound 254]	–	100 to 1000 nM	–
O=C(Cc1csc(-c2cccc(C(F)(F)F)c2)n1)N[C@H](CN1CCCC1)[C@H](OC(=O)Cc1csc(-c2cccc(C(F)(F)F)c2)n1)c1ccc2c(c1)OCCO2 [Compound 255]	–	1000 to 3000 nM	–
COc1ccc(CNC(=O)N(C)[C@H](CN2CCCC2)[C@H](O)c2ccc3c(c2)OCCO3)cc1 [Compound 256]	–	100 to 1000 nM	–
O=C(Cc1ccc(OC(F)(F)F)cc1)N[C@H](CN1CCOCC1)[C@H](O)c1ccc2c(c1)OCCO2 [Compound 258]	–	3000 to 10000 nM	–
CCCCc1ccc([C@@H](O)[C@@H](CN2CCCC2)NC(=O)CCOc2ccc(OC)cc2)cc1 [Compound 260]	–	≤ 100 nM	–

Continued, in another order:

IC50 (48 h, Table 1)	IC50 (48 h, Table 2)	SMILES	further results
100 to 1000 nM	–	COc1ccc(C(=O)CCC(=O)N[C@H](CN2CCCC2)[C@H](O)c2ccc3c(c2)OCCO3)cc1 [Compound 154, N-((1R,2R)-1-(2,3-dihydrobenzo[b][1,4]dioxin-6-yl)-1-hydroxy-3-(pyrrolidin-1-yl)propan-2-yl)-4-(4-methoxyphenyl)-4-oxobutanamide]	–
≤ 100 nM	–	CC(C)Oc1ccc(C(=O)CCC(=O)N[C@H](CN2CCCC2)[C@@H](O)c2ccc3c(c2)OCCO3)cc1 [Compound 162, N-((1R,2R)-1-(2,3-dihydrobenzo[β][1,4]dioxin-6-yl)-1-hydroxy-3-(pyrrolidin-1-yl)propan-2-yl)-4-(4-isopropoxyphenyl)-4-oxobutanamide]	–
100 to 1000 nM	–	CC(C)CC(=O)c1ccc(OCCC(=O)N[C@H](CN2CCCC2)[C@H](O)c2ccc3c(c2)OCCO3)cc1 [Compound 187, N-((1R,2R)-1-(2,3-dihydrobenzo[β][1,4]dioxin-6-yl)-1-hydroxy-3-(pyrrolidin-1-yl)propan-2-yl)-3-(4-(3-methylbutanoyl)phenoxy)propanamide (2S,3S)-2,3-dihydroxysuccinate]	–
100 to 1000 nM	–	CCc1ccc(OCCC(=O)N[C@H](CN2CCCC2)[C@H](O)c2ccc3c(c2)OCCO3)cc1 [Compound 188, N-((1R,2R)-1-(2,3-dihydrobenzo[b][1,4]dioxin-6-yl)-1-hydroxy-3-(pyrrolidin-1-yl)propan-2-yl)-3-(4-ethylphenoxy)propanamide (2R,3R)-2,3-dihydroxysuccinate]	–
100 to 1000 nM	–	CCC(=O)c1ccc(OCCC(=O)N[C@H](CN2CCCC2)[C@H](O)c2ccc3c(c2)OCCO3)cc1 [Compound 189, N-((1R,2R)-1-(2,3-dihydrobenzo[b][1,4]dioxin-6-yl)-1-hydroxy-3-(pyrrolidin-1-yl)propan-2-yl)-3-(4-propionylphenoxy)propanamide (2R,3R)-2,3-dihydroxysuccinate]	–
≤ 100 nM	–	COc1ccc(C(=O)CCCC(=O)N[C@H](CN2CCCC2)[C@H](O)c2ccc3c(c2)OCCO3)cc1 [Compound 191, N-((1R,2R)-1-(2,3-dihydrobenzo[β][1,4]dioxin-6-yl)-1-hydroxy-3-(pyrrolidin-1-yl)propan-2-yl)-5-(4-methoxyphenyl)-5-oxopentanamide (2R,3R)-2,3-dihydroxysuccinate]	–
100 to 1000 nM	–	CC(=O)CCc1ccc(OCCC(=O)N[C@H](CN2CCCC2)[C@H](O)c2ccc3c(c2)OCCO3)cc1 [Compound 193, N-((1R,2R)-1-(2,3-dihydrobenzo[b][1,4]dioxin-6-yl)-1-hydroxy-3-(pyrrolidin-1-yl)propan-2-yl)-3-(4-(3-oxobutyl)phenoxy)propanamide (2R,3R)-2,3-dihydroxysuccinate]	–
≤ 100 nM	–	COc1ccc(OCCCC(=O)N[C@H](CN2CCCC2)[C@H](O)c2ccc3c(c2)OCCO3)cc1 [Compound 197, N-((1R,2R)-1-(2,3-dihydrobenzo[β][1,4]dioxin-6-yl)-1-hydroxy-3-(pyrrolidin-1-yl)propan-2-yl)-4-(4-methoxyphenoxy)butanamide (2S,3S)-2,3-dihydroxysuccinate]	–
100 to 1000 nM	–	COCCc1ccc(OCCC(=O)N[C@H](CN2CCCC2)[C@H](O)c2ccc3c(c2)OCCO3)cc1 [Compound 202, N-((1R, R)-1-(2,3-dihydrobenzo[β][1,4]dioxin-6-yl)-1-hydroxy-3-(pyrrolidin-1-yl)propan-2-yl)-3-(4-(2-methoxyethyl)phenoxy)propanamide (2R, R)-2,3-dihydroxysuccinate]	–
–	3000 to 10000 nM	COc1ccc(OCCC(=O)N[C@H](CN2CCOCC2)[C@H](O)c2ccc3c(c2)OCCO3)cc1 [Compound 257, N-((1R,2R)-1-(2,3-dihydrobenzo[β][1,4]dioxin-6-yl)-1-hydroxy-3-morpholinopropan-2-yl)-3-(4-methoxyphenoxy)propanamide]	–
–	≤ 100 nM	COc1ccc(OCCC(=O)N[C@H](CN2CCCC2)[C@H](O)c2ccc3c(c2)OCO3)cc1 [Compound 259]	–
